The subject of one data set is Colon 26. In words: Efficacy in mouse tumor models: Colon Carcinoma 26. The conditions noted are these: Colon 26 mouse model. The format is in vivo. How it is done:
(§1) The efficacy of the compounds of the present invention was also tested in vivo using three well-known mouse tumor models: L1210, Lewis Lung, and Colon Carcinoma 26.

In data set [1] the test system is solid tumor cancers, particularly ovarian cancer and non-small cell lung carcinoma. Particulars: humans; cited from earlier work.
Data set [2] relates to multidrug resistant (CH^R C5) Chinese Hamster ovary cells. Briefly: CHO Microtiter Cytotoxicity Assay, multidrug resistant. The format is cell-based. Particulars: Cricetulus griseus, CHRC5, 72 h, 3 days, XTT. How it is done: (§2) CHO Microtiter Cytotoxicity Assay
(§3) Chinese Hamster ovary cells are grown in Alpha MEM Medium with L-glutamine and nucleosides and containing 10% fetal bovine serum and 100 units per mL penicillin-streptomycin in 75 cm^2 canted neck tissue culture flasks. They are harvested from these flasks using 0.5% trypsin. Microtiter plates (96-well, sterile, flat bottom) (Corning 25860) are seeded with 1.6×10^3 wild-type (AUX-B1) Chinese Hamster ovary cells per well or 2×10^3 multidrug resistant (CH^R C5) Chinese Hamster ovary cells per well. The plates are incubated at 37° C., 5% CO2 overnight to allow the cells to attach. The outside wells of each plate are not used, due to evaporation during the incubation time. They are filled with medium and used as blanks. The next day, the medium is aspirated from the wells and 180 μL of fresh medium is added to each well. Compounds are diluted from stock solution in DMSO into fresh medium to a 10X concentration containing 2% DMSO. Twenty μL of this is then added to the 180 μL of fresh meduim in the wells. The plates are then incubated for another 3 days at 37° C., 5% CO2. […] The plate is then read on a UV Max plate reader, using wells without cells .(i.e., containing only 200 μL of medium and 50 μL of XTT/PMS solution) as a background control.
For orientation: Tetrazolium dyes change colour on reduction, which living cells bring about.

The subject of another data set is Lewis Lung. Briefly: Efficacy in mouse tumor models: Lewis Lung. Type of data set: in vivo. The conditions noted are these: Lewis Lung mouse model, dose 9 mg/kg ip. How it is done: as §1
The test system of data set [3] is wild-type (AUX-B1) Chinese Hamster ovary cells. In words: CHO Microtiter Cytotoxicity Assay, wild type. The format is cell-based. Particulars: Cricetulus griseus, AuxB1, 72 h, 3 days, XTT. The method, then:
as §2, §3

The test system of a further data set is L1210. Briefly: Efficacy in mouse tumor models: L1210. The format is in vivo. Particulars: L1210 mouse model, dose 42 mg/kg ip. How it is done:
as §1

For data set [4] the following is noted: in vivo; cited from earlier work.
The target in another data set is T1, topoisomerase I (Homo sapiens, UniProt P11387).
T1 sequence (P11387 1-765): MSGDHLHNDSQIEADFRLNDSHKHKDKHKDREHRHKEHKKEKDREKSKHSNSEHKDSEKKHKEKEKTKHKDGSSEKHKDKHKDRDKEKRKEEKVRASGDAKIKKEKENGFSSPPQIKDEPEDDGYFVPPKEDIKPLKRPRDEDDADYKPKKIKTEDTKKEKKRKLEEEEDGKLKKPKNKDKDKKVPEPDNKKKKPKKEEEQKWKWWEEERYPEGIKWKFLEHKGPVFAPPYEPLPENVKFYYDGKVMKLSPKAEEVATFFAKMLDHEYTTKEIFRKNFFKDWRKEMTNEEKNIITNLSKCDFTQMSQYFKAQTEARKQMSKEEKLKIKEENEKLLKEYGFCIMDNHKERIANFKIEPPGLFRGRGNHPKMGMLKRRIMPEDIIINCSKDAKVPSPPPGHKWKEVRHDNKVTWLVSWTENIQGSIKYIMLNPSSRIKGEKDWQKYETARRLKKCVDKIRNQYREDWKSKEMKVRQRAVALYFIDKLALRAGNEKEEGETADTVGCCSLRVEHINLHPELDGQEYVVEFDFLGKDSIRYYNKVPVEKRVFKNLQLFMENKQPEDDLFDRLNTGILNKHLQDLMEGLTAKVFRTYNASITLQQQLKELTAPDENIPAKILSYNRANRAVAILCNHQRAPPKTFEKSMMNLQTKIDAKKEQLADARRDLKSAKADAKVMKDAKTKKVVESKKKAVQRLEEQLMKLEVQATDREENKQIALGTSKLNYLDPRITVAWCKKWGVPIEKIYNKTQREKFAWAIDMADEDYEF
The conditions noted are these: cited from earlier work.

For another data set, the system named is topoisomerase II. Particulars: cited from earlier work.

The values that follow come from patent US5670500A (priority 1995, dated 1997).

Broadly, the IC50 is the concentration that gives 50% inhibition.

On to `CC[C@@]1(O)C(=O)OCc2c1cc1n(c2=O)Cc2cc3c(CN(C)C)c(O)ccc3nc2-1` [Topotecan, 9-dimethylaminomethyl-10-hydroxycamptothecin, reference compound], for which the “% Inc. in Lifespan, Colon 26” value in the data set on Colon 26 (dose 20 mg/kg sc) is 45%. In addition, the “efficacy in clinical tests” value in data set [1] is “demonstrated efficacy against several solid tumor cancers, particularly ovarian cancer and non-small cell lung carcinoma”.

With `CC[C@@]1(O)C(=O)OCc2c1cc1n(c2=O)Cc2cc3c4c(ccc3nc2-1)OC(CN(C)C)C4` (stereo partly drawn) [Formula IV, (8S)-2-[(dimethylamino)methyl]-8-ethyl-1,2-dihydro-8-hydroxy-11H-furano[3,2-f]-pyrano [3',4':6,7]indolizino[1,2-b]quinoline-9,12(8H,14H)-dione], the values for the IC50 in data set [2] and in data set [3] were 1 µM and 0.018 µM, respectively. Besides, the “% Inc. in Lifespan, Colon 26” value in the data set on Colon 26 (dose 20 mg/kg sc) is on record as 32%. The “% Inc. in Lifespan, Lewis Lung” value in the data set with Lewis Lung came out at 67%.

As for `CC[C@@]1(O)C(=O)OCc2c1cc1n(c2=O)Cc2cc3c4c(ccc3nc2-1)OC(CN1CCOCC1)C4` (stereo partly drawn) [Formula III, (8S)-8-ethyl-1,2-dihydro-8-hydroxy-2(4-morpholinylmethyl)11H-furano [3,2-f]-pyrano[3',4':6,7]indolizino[1,2-b]quinoline-9,12(8H,14H)-dione], the IC50 in data set [2] amounted to 0.42 µM; in data set [3] it was 0.0055 µM. The “% Inc. in Lifespan, Colon 26” value with Colon 26 (dose 20 mg/kg sc) came to 45%. Besides, the “% Inc. in Lifespan, L1210” value with L1210 is on record as 350%.

For “(S)-10-amino-4-ethyl-4-hydroxy-1H-pyrano[3',4':6,7]indolizino [1,2-b]quinoline-3,14(4H,12H)-dione [CPT-11]”, in [4], the toxicity result is on record as “adverse toxicity profile”.

With `CC[C@@]1(O)C(=O)OCc2c1cc1n(c2=O)Cc2cc3ccccc3nc2-1` [Camptothecin], the “% Inc. in Lifespan, Colon 26” value in the data set on Colon 26 (dose 4 mg/kg ip) was 50%. Also, at topoisomerase I, the “inhibition of topoisomerase I” value was “inhibit topoisomerase I”. For the same compound, the toxicity result in [4] is reported as “unacceptable dose limiting toxicity, unpredictable toxicity”. In the data set on topoisomerase II, the “effect on topoisomerase II” value is on record as “no effect on topoisomerase II”.
